Laboratory results: patent US20230072421A1, “TARGETED RADIOPHARMACEUTICALS FOR THE DIAGNOSIS AND TREATMENT OF PROSTATE CANCER” (Bayer AS, priority 2019, published 2023)

Biological target: T1, PSMA-expressing LNCaP cells (Homo sapiens, UniProt Q04609)
T1 construct: PSMA-expressing LNCaP cells; endogenous in cells; host or cells: LNCaP
Test: Binding competition assay against 3H-PSMA-617 on LNCaP cells
Settings: for competition against 3H-PSMA-617 on PSMA-expressing LNCaP cells (in words): comparison between examples
Experimental: Cells were incubated at 37° C. and 5% CO2 over night. […] After addition of the compounds in growth media the cells were swiveled slightly on a shaker mixing for 10 min followed by incubation for 2 h at 37° C., 5% C02. Following the incubation time the supernatant was removed by pipetting and cells were washed twice with ice cold PBS (total of 800 μl). Cells were lysed in 500 μl of 0.3M NaOH (PanReac AppliChem ITW Reagents) by vigorous shaking for 15 min and the cell lysated pipetted into scintillator tubes (S207-[…]® Scintillation Vials 6.5 ml #S207, Simport). In the following the wells were washed with 500 μl PBS and the washing PBS added to the corresponding samples in the sincitallator tubes. To each sample in the scintillator tubes 4 mL of Ultima Gold liquid scintillation cocktail (Sigma-Aldrich #L8286) was added and the samples let stand for at least 30 min. Thereafter radioactivity was counted in a Tri-Carb Liquid Scinzillation Analyzer (Perkin Elmer).

[1] = LNCaP cells, 10 nM 3H-PSMA-617, competing non-radiolabeled compound 10 nM, 2 h at 37° C., triplicates
[2] = LNCaP cells, 10 nM 3H-PSMA-617, competing non-radiolabeled compound 100 nM, 2 h at 37° C., triplicates

T1 sequence (Q04609 whole entry): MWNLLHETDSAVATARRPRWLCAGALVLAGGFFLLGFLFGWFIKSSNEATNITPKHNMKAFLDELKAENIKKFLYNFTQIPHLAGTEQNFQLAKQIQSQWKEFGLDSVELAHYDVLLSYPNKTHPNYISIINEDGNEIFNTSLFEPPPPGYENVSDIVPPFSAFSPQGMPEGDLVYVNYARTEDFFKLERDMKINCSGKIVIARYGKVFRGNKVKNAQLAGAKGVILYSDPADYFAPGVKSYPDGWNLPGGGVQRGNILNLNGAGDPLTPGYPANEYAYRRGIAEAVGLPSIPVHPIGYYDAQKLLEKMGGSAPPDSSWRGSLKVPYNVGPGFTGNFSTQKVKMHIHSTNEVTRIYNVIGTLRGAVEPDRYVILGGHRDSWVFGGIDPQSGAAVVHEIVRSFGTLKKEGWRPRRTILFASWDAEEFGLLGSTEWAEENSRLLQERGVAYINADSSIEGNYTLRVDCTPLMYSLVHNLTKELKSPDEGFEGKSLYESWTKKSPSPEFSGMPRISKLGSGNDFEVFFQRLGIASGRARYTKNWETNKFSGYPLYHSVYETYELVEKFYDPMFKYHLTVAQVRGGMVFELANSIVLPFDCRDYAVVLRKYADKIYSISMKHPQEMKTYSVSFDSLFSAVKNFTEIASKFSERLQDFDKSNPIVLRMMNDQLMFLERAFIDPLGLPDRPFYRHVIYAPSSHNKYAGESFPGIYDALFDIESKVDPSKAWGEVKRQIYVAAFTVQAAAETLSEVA

Compound	remaining activity at 0.01 µM [1] [%]	remaining activity at 0.1 µM [2] [%]	competition against 3H-PSMA-617 on PSMA-expressing LNCaP cells (in words)	% remaining 3H-PSMA-617 @ 10 nM (mean) [1] [%]	% remaining 3H-PSMA-617 @ 100 nM (mean) [2] [%]
NC[C@H]1CC[C@H](C(=O)N(Cc2cccc(=O)[nH]2)[C@@H](Cc2ccc3ccccc3c2)C(=O)NCCCC[C@H](NC(=O)N[C@@H](CCC(=O)O)C(=O)O)C(=O)O)CC1 [Example 21-A, (3S,10S,14S)-1-[(1r,4S)-4-(aminomethyl)cyclohexyl]-3-[(naphthalen-2-yl)methyl]-1,4,12-trioxo-2-[(6-oxo-1,6-dihydropyridin-2-yl)methyl]-2,5,11,13-tetraazahexadecane-10,14,16-tricarboxylic acid]	70	58	–	–	–
O=C(O)CC[C@H](NC(=O)N[C@@H](CCCCNC(=O)[C@H](Cc1ccc2ccccc2c1)NC(=O)c1ccc(CNC(=O)CN2CCN(CC(=O)O)CCN(CC(=O)O)CCN(CC(=O)O)CC2)nc1)C(=O)O)C(=O)O [Example 26-B, (3S,10S,14S)-3-[(naphthalen-2-yl)methyl]-1,4,12-trioxo-1-[6-({2-[4,7,10-tris(carboxymethyl)-1,4,7,10-tetraazacyclododecan-1-yl]acetamido}methyl)pyridin-3-yl]-2,5,11,13-tetraazahexadecane-10,14,16-tricarboxylic acid]	53	6	improved competition in comparison to the cyclohexyl examples 1-A and 1-B	–	–
O=C(O)CC[C@H](NC(=O)N[C@@H](CCCCNC(=O)[C@H](Cc1ccc2ccccc2c1)NC(=O)c1ccc(CNC(=O)CN2CCN(CC(=O)O)CCN(CC(=O)O)CCN(CC(=O)O)CC2)cc1)C(=O)O)C(=O)O [Example 24-B, (3S,10S,14S)-3-[(naphthalen-2-yl)methyl]-1,4,12-trioxo-1-[4-({2-[4,7,10-tris(carboxymethyl)-1,4,7,10-tetraazacyclododecan-1-yl]acetamido}methyl)phenyl]-2,5,11,13-tetraazahexadecane-10,14,16-tricarboxylic acid]	59	6	–	–	–
Nc1ccc(-c2ccn(CC(=O)N[C@@H](Cc3ccc4ccccc4c3)C(=O)NCCCC[C@H](NC(=O)N[C@@H](CCC(=O)O)C(=O)O)C(=O)O)n2)cc1 [Example 28-A, (4S,11S,15S)-1-[3-(4-aminophenyl)-1H-pyrazol-1-yl]-4-[(naphthalen-2-yl)methyl]-2,5,13-trioxo-3,6,12,14-tetraazaheptadecane-11,15,17-tricarboxylic acid]	107	60	–	–	–
O=C(O)CC[C@H](NC(=O)N[C@@H](CCCCNC(=O)[C@@H](Cc1ccc2ccncc2c1)NC(=O)[C@H]1CC[C@H](CNC(=O)CN2CCN(CC(=O)O)CCN(CC(=O)O)CCN(CC(=O)O)CC2)CC1)C(=O)O)C(=O)O [Example 42-B, (3R,10S,14S)-3-[(isoquinolin-7-yl)methyl]-1,4,12-trioxo-1-[(1r,4S)-4-({2-[4,7,10-tris(carboxymethyl)-1,4,7,10-tetraazacyclododecan-1-yl]acetamido}methyl)cyclohexyl]-2,5,11,13-tetraazahexadecane-10,14,16-tricarboxylic acid]	88	34	–	–	–
NC[C@H]1CC[C@H](C(=O)N[C@@H](Cc2ccc(O)cc2)C(=O)NCCCC[C@H](NC(=O)N[C@@H](CCC(=O)O)C(=O)O)C(=O)O)CC1 [Example 15-A, N^6—{N-[(1r,4S)-4-(aminomethyl)cyclohexane-1-carbonyl]-L-tyrosyl}-N^2-{[(1S)-1,3-dicarboxypropyl]carbamoyl}-L-lysine]	133	111	–	–	–
O=C(O)CC[C@H](NC(=O)N[C@@H](CCCCNC(=O)[C@H](Cc1ccc2ccccc2n1)NC(=O)[C@H]1CC[C@H](CNC(=O)CN2CCN(CC(=O)O)CCN(CC(=O)O)CCN(CC(=O)O)CC2)CC1)C(=O)O)C(=O)O [Example 17-B, N^6-{3-(quinolin-2-yl)-N-[(1r,4S)-4-({2-[4,7,10-tris(carboxymethyl)-1,4,7,10-tetraazacyclododecan-1-yl]acetamido}methyl)cyclohexane-1-carbonyl]-L-alanyl}-N^2-{[(1S)-1,3-dicarboxypropyl]carbamoyl}-L-lysine]	55	12	best competition amongst all quinoline isomer examples	–	–
O=C(O)CC[C@H](NC(=O)N[C@@H](CCCCNC(=O)[C@H](Cc1ccc2ccccc2c1)NC(=O)[C@H]1CC[C@H](CNC(=O)COCC(=O)NCCOCCOCCOCCOCCOCCOCCOCCOCCOCCOCCOCCNC(=O)COCC(=O)Nc2ccc(CC(CN(CCNC(=O)c3ccn(CCO)c(=O)c3O)CCNC(=O)c3ccn(CCO)c(=O)c3O)CN(CCNC(=O)c3ccn(CCO)c(=O)c3O)CCNC(=O)c3ccn(CCO)c(=O)c3O)cc2)CC1)C(=O)O)C(=O)O [Example 1-PEG]	–	–	–	80	41
NCc1ccc(C(=O)N[C@@H](Cc2ccc3ccccc3c2)C(=O)NCCCC[C@H](NC(=O)N[C@@H](CCC(=O)O)C(=O)O)C(=O)O)cc1 [Example 24-A, (3S,10S,14S)-1-[4-(aminomethyl)phenyl]-3-[(naphthalen-2-yl)methyl]-1,4,12-trioxo-2,5,11,13-tetraazahexadecane-10,14,16-tricarboxylic acid]	66	16	–	–	–

Continued, in another order:

remaining activity at 0.01 µM [1] [%]	remaining activity at 0.1 µM [2] [%]	Compound	competition against 3H-PSMA-617 on PSMA-expressing LNCaP cells (in words)	% remaining 3H-PSMA-617 @ 10 nM (mean) [1] [%]	% remaining 3H-PSMA-617 @ 100 nM (mean) [2] [%]
113	40	NC[C@H]1CC[C@H](C(=O)N[C@@H](Cc2cnc3ccccc3c2)C(=O)NCCCC[C@H](NC(=O)N[C@@H](CCC(=O)O)C(=O)O)C(=O)O)CC1 [Example 22-A, N^6—{N-[(1r,4S)-4-(aminomethyl)cyclohexane-1-carbonyl]-3-(quinolin-3-yl)-L-alanyl}-N^2-{[(1S)-1,3-dicarboxypropyl]carbamoyl}-L-lysine]	–	–	–
84	56	NC[C@H]1CC[C@H](C(=O)N[C@@H](Cc2ccc3ccccc3n2)C(=O)NCCCC[C@H](NC(=O)N[C@@H](CCC(=O)O)C(=O)O)C(=O)O)CC1 [Example 17-A, N^6—{N-[(1r,4S)-4-(aminomethyl)cyclohexane-1-carbonyl]-3-(quinolin-2-yl)-L-alanyl}-N^2-{[(1S)-1,3-dicarboxypropyl]carbamoyl}-L-lysine]	–	–	–
61	78	NC[C@H]1CC[C@H](C(=O)N[C@@H](Cc2ccc(Br)cn2)C(=O)NCCCC[C@H](NC(=O)N[C@@H](CCC(=O)O)C(=O)O)C(=O)O)CC1 [Example 31-A, N^6—{N-[(1r,4S)-4-(aminomethyl)cyclohexane-1-carbonyl]-3-(5-bromopyridin-2-yl)-L-alanyl}-N^2-{[(1S)-1,3-dicarboxypropyl]carbamoyl}-L-lysine]	–	–	–
92	111	CC(C)(C)c1ccc(C[C@H](NC(=O)[C@H]2CC[C@H](CN)CC2)C(=O)NCCCC[C@H](NC(=O)N[C@@H](CCC(=O)O)C(=O)O)C(=O)O)cc1 [Example 8-A, N^6—{N-[(1r,4S)-4-(aminomethyl)cyclohexane-1-carbonyl]-4-tert-butyl-L-phenylalanyl}-N^2-{[(1S)-1,3-dicarboxypropyl]carbamoyl}-L-lysine]	–	–	–
78	79	NC[C@H]1CC[C@H](C(=O)N[C@@H](Cc2ccc(C3CCC3)cc2)C(=O)NCCCC[C@H](NC(=O)N[C@@H](CCC(=O)O)C(=O)O)C(=O)O)CC1 [Example 18-A, N^6—{N-[(1r,4S)-4-(aminomethyl)cyclohexane-1-carbonyl]-4-cyclobutyl-L-phenylalanyl}-N^2-{[(1S)-1,3-dicarboxypropyl]carbamoyl}-L-lysine]	–	–	–
113	60	CNCC[C@H]1CC[C@H](C(=O)N[C@H](Cc2cc(OC)c3ccccc3c2)C(=O)NCCCC[C@H](NC(=O)N[C@@H](CCC(=O)O)C(=O)O)C(=O)O)CC1 [Example 35-A, (3R,10S,14S)-3-[(4-methoxynaphthalen-2-yl)methyl]-1-{(1r,4S)-4-[2-(methylamino)ethyl]cyclohexyl}-1,4,12-trioxo-2,5,11,13-tetraazahexadecane-10,14,16-tricarboxylic acid]	–	–	–
88	82	NC[C@H]1CC[C@H](C(=O)N[C@@H](CCCNC(=O)c2cnccn2)C(=O)NCCCC[C@H](NC(=O)N[C@@H](CCC(=O)O)C(=O)O)C(=O)O)CC1 [Example 20-A, N^6—{N^2-[(1r,4S)-4-(aminomethyl)cyclohexane-1-carbonyl]-N^5-(pyrazine-2-carbonyl)-L-ornithyl}-N^2-{[(1S)-1,3-dicarboxypropyl]carbamoyl}-L-lysine]	–	–	–
90	45	NC[C@H]1CC[C@H](C(=O)NC(Cc2ccc3ccccc3c2)C(=O)NCCCC[C@H](NC(=O)N[C@@H](CCC(=O)O)C(=O)O)C(=O)O)CC1 (stereo partly drawn) [Example 1-A, (3S,10S,14S)-1-[(1r,4S)-4-(aminomethyl)cyclohexyl]-3-[(naphthalen-2-yl)methyl]-1,4,12-trioxo-2,5,11,13-tetraazahexadecane-10,14,16-tricarboxylic acid]	–	–	–
158	128	Cc1ccccc1C[C@H](NC(=O)[C@H]1CC[C@H](CN)CC1)C(=O)NCCCC[C@H](NC(=O)N[C@@H](CCC(=O)O)C(=O)O)C(=O)O [Example 12-A, N^6—{N-[(1r,4S)-4-(aminomethyl)cyclohexane-1-carbonyl]-2-methyl-L-phenylalanyl}-N^2-{[(1S)-1,3-dicarboxypropyl]carbamoyl}-L-lysine]	–	–	–
